Results from patent US20100105664A1, “ORGANIC COMPOUNDS” (priority 2006, published 2010).
Where a name gives a salt, the structure may show the parent alone.

Target: T1, human MK2 (Homo sapiens, UniProt P49137)
T1 construct: made in house
Assay: MAPKAPK2 (or MK2) Kinase Assay
Format: biochemical
Details: activated MAPKAPK2, Hsp27 peptide substrate, 5 μM ATP, TR-FRET
Method: MAPKAPK2 (or MK2) Kinase Assay
MAPAPK2 is pre-activated in kinase buffer (25 mM TRIS-HCL, pH 7.5, 25 mM beta-glycerophosphate, 0.1 mM sodium orthovanadate, 25 mM MgCl2, 20 μM DTT) containing 5 μM ATP, 150 μg/ml human MK2 (HPLC purified in house), 30 μg/ml active human p38α (HPLC purified in house) for 30 min at 22° C. For the measurement of compound inhibition on activated MAPAPK2, each reaction contained test compound (10 μl; 0.5% DMSO final) or vehicle control, 250 nM Hsp27 peptide biotinyl-AYSRALSRQLSSGVSEIR—COOH as substrate (10 μl) and pre-activated MAPKAP2 kinase mix (10 μl) containing ATP (5 μM final). To define non-specific, reactions are performed in the absence of substrate. Following incubation at 22° C. for 45 min, kinase reactions are terminated with 125 μM EDTA (10 μl). Samples (10 μl) are transferred to black low volume 384-well plates (Greiner) prior to the detection of phosphorylated substrate by time-resolved fluorescence resonance energy transfer (TR-FRET). Phosphorylated Hsp27 is measured using an antibody mix (10 μl) containing a rabbit anti-phospho-Hsp27 (Ser^82) antibody (2.5 nM, Upstate) in conjunction with an anti-rabbit europium-labeled secondary antibody LANCE Eu-W1024 (2.5 nM; Perkin Elmer) as fluorescence donor along with streptavidin SureLight-APC (6.25 nM; Perkin Elmer) as a fluorescence acceptor. Following incubation at 22° C. for 90 min, plates are measured at 615 and 665 nm using a PHERAstar (BMG Labtech). The 615/665 nm ratio is determined following subtraction of background. Values are expressed as % inhibition using control values. Individual IC50 values of compounds are determined by nonlinear regression after fitting of curves to the experimental data using Excel XL fit 4.0 (Microsoft).
For a number of compounds being identified by their example No. the efficacy is disclosed as being assessable by the above described MK2 kinase assay: […]

T1 sequence (P49137 whole entry): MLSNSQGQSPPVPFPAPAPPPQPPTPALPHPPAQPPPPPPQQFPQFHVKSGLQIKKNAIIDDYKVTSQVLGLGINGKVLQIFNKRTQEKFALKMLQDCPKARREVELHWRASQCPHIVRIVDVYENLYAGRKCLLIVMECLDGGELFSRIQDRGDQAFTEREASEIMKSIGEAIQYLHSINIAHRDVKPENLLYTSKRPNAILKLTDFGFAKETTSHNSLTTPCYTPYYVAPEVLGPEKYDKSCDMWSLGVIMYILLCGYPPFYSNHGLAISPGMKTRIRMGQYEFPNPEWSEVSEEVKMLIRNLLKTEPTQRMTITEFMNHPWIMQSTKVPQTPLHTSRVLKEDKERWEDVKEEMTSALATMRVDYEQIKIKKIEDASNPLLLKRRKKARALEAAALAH

Compound	IC50 [µM]
NC(=O)c1cc(-c2ccnc(/C=C/c3ccc(CN4CCOCC4)cc3)c2)[nH]c1N1CCNCC1 [Example 72, 5-{2-[(E)-2-(4-Morpholin-4-ylmethyl-phenyl)-vinyl]-pyridin-4-yl}-2-piperazin-1-yl-1H-pyrrole-3-carboxylic acid amide hydrobromide]	0.1
N#Cc1cc(-c2ccnc(/C=C/c3ccccc3)c2)[nH]c1C1CCNCC1 [Example 144, 2-Piperidin-4-yl-5-[2-((E)-styryl)-pyridin-4-yl]-1H-pyrrole-3-carbonitrile]	0.21
NC(=O)c1cc(-c2ccnc(-c3ccc(N4CCCCC4)nc3)c2)[nH]c1N1CCNCC1 [Example 109, 2-Piperazin-1-yl-5-(3,4,5,6-tetrahydro-2H-[1,2′;5′,2″]terpyridin-4″-yl)-1H-pyrrole-3-carboxylic acid amide]	0.16
NC(=O)c1cc(-c2ccnc(-c3ccc(S(=O)(=O)N4CCOCC4)cc3)c2)[nH]c1N1CCNCC1 [Example 51, 5-{2-[4-(Morpholine-4-sulfonyl)-phenyl]-pyridin-4-yl}-2-piperazin-1-yl-1H-pyrrole-3-carboxylic acid amide]	0.05
N#Cc1cc(-c2ccnc(/C=C/c3ccccc3)c2)[nH]c1CCN [Example 148, 2-(2-Amino-ethyl)-5-[2-((E)-styryl)-pyridin-4-yl]-1H-pyrrole-3-carbonitrile]	0.15
NC(=O)c1cc(-c2ccnc(/C=C/c3ccccc3)c2)[nH]c1N1CCNCC1 [Example 14, 2-Piperazin-1-yl-5-[2-((E)-styryl)-pyridin-4-yl]-1H-pyrrole-3-carboxylic acid amide]	0.12
NC(=O)c1cc(-c2ccnc(/C=C/c3ccccc3)c2)[nH]c1C1=CCNCC1 [Example 170, 5-[2-((E)-Styryl)-pyridin-4-yl]-2-(1,2,3,6-tetrahydro-pyridin-4-yl)-1H-pyrrole-3-carboxylic acid amide]	0.27
CN1CCC(Oc2ccc(-c3cc(-c4cc(C#N)c(N5CCNCC5)[nH]4)ccn3)cn2)CC1 [Example 105, 5-[6′-(1-Methyl-piperidin-4-yloxy)-[2,3′]bipyridinyl-4-yl]-2-piperazin-1-yl-1H-pyrrole-3-carbonitrile trifluoroacetate]	0.07
NC(=O)c1cc(-c2ccnc(-c3ccc(C(=O)NC4CCCC4)cc3)c2)[nH]c1N1CCNCC1 [Example 55, 5-[2-(4-Cyclopentylcarbamoyl-phenyl)-pyridin-4-yl]-2-piperazin-1-yl-1H-pyrrole-3-carboxylic acid amide]	0.26
NC(=O)c1cc(-c2ccnc(/C=C/c3ccc(F)cc3)c2)[nH]c1N1CCNCC1 [Example 9, 5-{2-[(E)-2-(4-Fluoro-phenyl)-vinyl]-pyridin-4-yl}-2-piperazin-1-yl-1H-pyrrole-3-carboxylic acid amide]	0.13
N#Cc1cc(-c2ccnc(/C=C/c3ccc(C(=O)N4CCOCC4)cc3)c2)[nH]c1N1CCNCC1 [Example 75, 5-(2-{(E)-2-[4-(Morpholine-4-carbonyl)-phenyl]-vinyl}-pyridin-4-yl)-2-piperazin-1-yl-1H-pyrrole-3-carbonitrile]	0.15
NCCc1[nH]c(-c2ccnc(/C=C/c3ccccc3)c2)cc1C(=O)O [Example 155, 2-(2-Amino-ethyl)-5-[2-((E)-styryl)-pyridin-4-yl]-1H-pyrrole-3-carboxylic acid]	0.08

Further lines, results first:

IC50 [µM]	Compound
0.07	N#Cc1cc(-c2ccnc(-c3cnc(N4CCCOCC4)nc3)c2)[nH]c1N1CCNCC1 [Example 118, 5-[2-(2-[1,4]Oxazepan-4-yl-pyrimidin-5-yl)-pyridin-4-yl]-2-piperazin-1-yl-1H-pyrrole-3-carbonitrile trifluoroacetate]
0.09	NC(=O)c1cc(-c2ccnc(Nc3cccc(S(=O)(=O)N4CCOCC4)c3)c2)[nH]c1N1CCNCC1 [Example 93, 5-{2-[3-(Morpholine-4-sulfonyl)-phenylamino]-pyridin-4-yl}-2-piperazin-1-yl-1H-pyrrole-3-carboxylic acid amide]
0.15	CN1CCN(c2ccc(-c3cc(-c4cc(C(N)=O)c(N5CCNCC5)[nH]4)ccn3)cn2)CC1 [Example 110, 5-[6′-(4-Methyl-piperazin-1-yl)-[2,3′]bipyridinyl-4-yl]-2-piperazin-1-yl-1H-pyrrole-3-carboxylic acid amide]
0.29	Cc1[nH]c(-c2ccnc(/C=C/c3ccc(CN4CCOCC4)cc3)c2)cc1C#N [Example 131, 2-Methyl-5-{2-[(E)-2-(4-morpholin-4-ylmethyl-phenyl)-vinyl]-pyridin-4-yl}-1H-pyrrole-3-carbonitrile]
0.2	NC(=O)c1cc(-c2ccnc(-c3ccc(N4CCN(Cc5ccccc5)CC4)nc3)c2)[nH]c1N1CCNCC1 [Example 116, 5-[6′-(4-Benzyl-piperazin-1-yl)-[2,3′]bipyridinyl-4-yl]-2-piperazin-1-yl-1H-pyrrole-3-carboxylic acid amide]
0.14	NC(=O)c1cc(-c2ccnc(/C=C/c3cccnc3)c2)[nH]c1N1CCNCC1 [Example 81, 2-Piperazin-1-yl-5-[2-((E)-2-pyridin-3-yl-vinyl)-pyridin-4-yl]-1H-pyrrole-3-carboxylic acid amide]
